# Results taken from patent publication US20070276032A1, “Use of 8-Prenylnaringenin for Hormone Replacement Therapy” (priority 2003, published 2007).
# Experiments:
# [1] = Body weight, estradiol in ovariectomized rats (Example 2); type: in vivo, Sprague-Dawley rats; conditions: OVX rats, s.c. once a day, 5 days a week, 4 weeks
# Protocol: (§1) Fifty-six female Sprague-Dawley rats, 12-14 weeks old, were used altogether. Forty-nine animals were randomized into seven groups. Group 8 (seven animals) administered with the third vehicle, benzyl alcohol/sesame oil, was added to the study thirteen days later. Seven groups were ovariectomized (OVX) and one group was sham-operated (SHAM). Animals were treated subcutaneously once a day, five days a week (Monday-Friday) as follows. Groups 1 (the SHAM group) and 2 (the OVX group) were given the vehicle benzylbenzoate/ricinus oil (0.5 ml/kg, B/R). […] Treatments started on the day following surgical operation and continued for 4 weeks. At the end of the study, ex vivo BMD of proximal tibia was measured and serum estradiol was determined. In addition, uterus was weighed.
# ovariectomized rats [2] = assay: Bone mineral density of proximal tibia, estradiol in ovariectomized rats (Example 2); type: in vivo, Sprague-Dawley rats; conditions: OVX rats; for Total bone density / Trabecular density: proximal tibia, s.c. 5 days a week, 4 weeks
# Protocol: as §1, with “weighed. Bone mineral density measurement was carried out by pQCT (XCT-960A, Stratec, Germany). The bone specimens were thawed before measurement. Six 1 mm-thick sections of the proximal tibia (2 mm below the epiphyseal growth plate) were scanned at 0.5 mm intervals using a voxel size of 0.148 mm. […] After bone densitometry, the specimens were wrapped back to saline saturated gauzes and stored at −20° C.” for “weighed.”
# [3] = Body weight, 8-PN racemic, 2S(−) 8-PN and estradiol hemihydrate in ovariectomized rats (Example 4); type: in vivo, Sprague-Dawley rats; conditions: OVX rats, s.c. once a day, 28 days
# Protocol: (§2) The aim of the study was to directly compare the effects of Prenylnaringenin (racemate) and 2S(−) 8-Prenylnaringenin to the effects of estradiol hemihydrate on bone mineral density and uterine weight on 3-month-old ovariectomized rats using identical formulations. In addition, the effects of estradiolhemihydrate in two vehicles (oily, aqueous) were examined for influence of formulations. The substances were administered subcutaneously(s.c.) seven days a week beginning the day after ovariectomy. At the end of the study, uterine weight and bone mineral density (BMD) of tibia were measured.
# (§3) Forty-one female Sprague-Dawley rats, 12-14 weeks of age were randomized into six groups, 6-8 animals in each. Five groups were ovariectomized (OVX) and one group was sham-operated (SHAM). Treatments started on the day following operation and continued for 28 days. The animals were treated s.c. once a day seven times a week as follows. Group 1 (SHAM vehicle group) and group 2 (OVX vehicle group) were given the vehicle 30% hydroxypropyl-β-cyclodextrin (HP-β-CD). Groups 3 and 4 were administered 4 μg/kg/d of estradiol hemihydrate in vehicle benzyl benzoate/ricinus oil (B/R) and in vehicle HP-β-CD, respectively. Groups 5 and 6 were given 20 mg/kg/d of 2S(−)8-Prenylnaringenin and racemic 8-Prenylnaringenin, respectively, both in vehicle HP-β-CD. At the end of the study, left tibiae were excised for the ex vivo BMD […] were taken from all dosing solutions on the first and last day of use.
# (§4) Vehicle 1 (used in the groups 1 and 2): 30% hydroxypropyl-β-cyclodextrin and 0.3% NaCl (w/v), 5% ethanol (v/v) in Aqua sterilisata, pH 7.4.
# (§5) Vehicle 2 (used when preparing dosing solutions of the groups 4, 5 and 6): 30% hydroxypropyl-β-cyclodextrin and 0.3% NaCl (w/v) in Aqua sterilisata, pH 7.4.
# (§6) Vehicle 3 (used when preparing a dosing solution of the group 3): benzyl benzoate/ricinus oil (B/R) 1+4, v/v.
# ovariectomized rats [4] = assay: Relative uterine weight, estradiol in ovariectomized rats (Example 2); type: in vivo, Sprague-Dawley rats; conditions: OVX rats; for Relative uterine weight: s.c. 5 days a week, 4 weeks
# Protocol: as §1, with “weighed. Relative uterine weight was calculated as percentage of body weight” for “weighed.”
# ovariectomized rats [5] = assay: Relative uterus weight, 8-PN racemic, 2S(−) 8-PN and estradiol hemihydrate in ovariectomized rats (Example 4); type: in vivo, Sprague-Dawley rats; conditions: OVX rats, s.c. 28 days, calculated as percentage of body weight
# Protocol: as §2, §3, §4, §5, §6
# ovariectomized rats [6] = assay: Trabecular density of proximal tibia, 8-PN racemic, 2S(−) 8-PN and estradiol hemihydrate in ovariectomized rats (Example 4); type: in vivo, Sprague-Dawley rats; conditions: OVX rats, s.c. 28 days
# Protocol: as §2, §3, §4, §5, §6
# ERE-Luc = assay: Estrogenic activity in the estrogen reporter mouse ERE-Luc model, luciferase activity in organs (Example 5); type: in vivo, mice; conditions: male ERE-Luc mice, six hours after the injection; for Luciferase activity, Prostate: controls 0.5; for Luciferase activity, Bone: controls 2.8; for Luciferase activity, Brain: controls 6.5; for Luciferase activity, Liver: controls 7.6
# Protocol: In order to avoid experimental noise male animals were used.
# Fourtyfive heterozygous male ERE-Luc mice of two months of age were fed with soy-free diet for two weeks before assigning them to each experimental group then all the mice were injected intraperitoneally (i.p.) with 250 μl of an oily solution containing the following compounds: • 1. Experimental group 1: vehicle • 2. Experimental group 2: 17β-estradiol at 1.5 μg/kg • 3. Experimental group 3: 2S(−)-8-PN at 30 mg/kg • 4. […] Experimental group 5: genistein at 30 mg/kg.
# The treatment was carried out in experimental groups of three mice each and repeated three times (therefore numbers reflect the average of […] determinations on a total of 9 animals).
# Six hours after the injection, mice were sacrificed by cervical dislocation and organs were dissected and frozen on dry ice. The following organs were analyzed for lucifererase activity by enzymatic assay: prostate, liver, bone, brain.
# Data represent means ±standard deviation of N=9 animals per group.
# Analysis of variance (ANOVA) for overall comparison was followed by Tukey test for paired comparisons. All statistical procedures were carried out with Systat and SAS (*P<0.05; **P<0.01).
# [7] = 4 μg/kg/d in benzyl benzoate/ricinus oil (B/R)
# [8] = 4.0 μpg/kg/d s.c. five times a week for four weeks
smiles,measurement,setting,value
"C[C@]12CC[C@@H]3c4ccc(O)cc4CC[C@H]3[C@@H]1CC[C@@H]2O [estradiol hemihydrate, 17β-estradiol hemihydrate, reference compound]",Final body weight,[1]; 1.2 μg/kg/d in vehicle BA/S,288 (11) g
same,The change in body weight,[1]; 1.2 μg/kg/d in vehicle BA/S,28 (1) g
same,Total bone density,ovariectomized rats [2]; 1.2 μg/kg/d in BA/S,596 (18) mg/cm^3
same,Trabecular density,ovariectomized rats [2]; 1.2 μg/kg/d in BA/S,386 (21) mg/cm^3
same,Body weight at The end (bw4b),[3]; 4 μg/kg/d in HP-β-CD,285(9) g
same,The change in Body weight (bw4b-bw0),[3]; 4 μg/kg/d in HP-β-CD,10(4) g
same,Body weight at The end (bw4b),[3]; [7],291(9) g
same,The change in Body weight (bw4b-bw0),[3]; [7],17(4) g
same,Relative uterine weight,ovariectomized rats [4]; 1.2 μg/kg/d in BA/S,0.131 (0.008) % of body weight
same,"Relative uterus weight, Mean",ovariectomized rats [5]; 4 μg/kg/d in B/R,0.175
same,"Relative uterus weight, Median",ovariectomized rats [5]; 4 μg/kg/d in B/R,0.178
same,"Relative uterus weight, Mean",ovariectomized rats [5]; 4 μg/kg/d in HP-β-CD,0.131
same,"Relative uterus weight, Median",ovariectomized rats [5]; 4 μg/kg/d in HP-β-CD,0.120
same,"Trabecular density at left proximal tibia, Mean",ovariectomized rats [6]; 4 μg/kg/d in B/R,542 mg/cm3
same,"Trabecular density at left proximal tibia, Median",ovariectomized rats [6]; 4 μg/kg/d in B/R,577 mg/cm3
same,"Trabecular density at left proximal tibia, Mean",ovariectomized rats [6]; 4 μg/kg/d in HP-β-CD,406 mg/cm3
same,"Trabecular density at left proximal tibia, Median",ovariectomized rats [6]; 4 μg/kg/d in HP-β-CD,383 mg/cm3
C[C@]12CC[C@@H]3c4ccc(O)cc4CC[C@H]3[C@@H]1CC[C@@H]2O [17β-estradiol],Final body weight,[1]; 0.2 μg/kg/d in vehicle B/R,304 (6) g
same,The change in body weight,[1]; 0.2 μg/kg/d in vehicle B/R,51 (3) g
same,Final body weight,[1]; 0.4 μg/kg/d in vehicle B/R,312 (6) g
same,The change in body weight,[1]; 0.4 μg/kg/d in vehicle B/R,53 (5) g
same,Final body weight,[1]; 1.2 μg/kg/d in vehicle B/R,303 (6) g
same,The change in body weight,[1]; 1.2 μg/kg/d in vehicle B/R,48 (4) g
same,Final body weight,[1]; 1.2 μg/kg/d in vehicle E/A,287 (8) g
same,The change in body weight,[1]; 1.2 μg/kg/d in vehicle E/A,33 (3) g
same,Final body weight,[1]; 4.0 μg/kg/d in vehicle B/R,284 (7) g
same,The change in body weight,[1]; 4.0 μg/kg/d in vehicle B/R,31 (3) g
same,effect on total and trabecular bone mineral density of proximal tibia,ovariectomized rats [2]; [8],prevented the OVX-induced decrease in total and trabecular bone mineral density of proximal tibia
same,Total bone density,ovariectomized rats [2]; 0.2 μg/kg/d in B/R,511 (17) mg/cm^3
same,Trabecular density,ovariectomized rats [2]; 0.2 μg/kg/d in B/R,271 (17) mg/cm^3
same,Total bone density,ovariectomized rats [2]; 0.4 μg/kg/d in B/R,506 (8) mg/cm^3
same,Trabecular density,ovariectomized rats [2]; 0.4 μg/kg/d in B/R,260 (13) mg/cm^3
same,Total bone density,ovariectomized rats [2]; 1.2 μg/kg/d in B/R,577 (24) mg/cm^3
same,Trabecular density,ovariectomized rats [2]; 1.2 μg/kg/d in B/R,376 (31) mg/cm^3
same,Total bone density,ovariectomized rats [2]; 1.2 μg/kg/d in E/A,577 (22) mg/cm^3
same,Trabecular density,ovariectomized rats [2]; 1.2 μg/kg/d in E/A,366 (24) mg/cm^3
same,Total bone density,ovariectomized rats [2]; 4.0 μg/kg/d in B/R,637 (13) mg/cm^3
same,Trabecular density,ovariectomized rats [2]; 4.0 μg/kg/d in B/R,435 (21) mg/cm^3
same,effect on relative uterine weight,ovariectomized rats [4]; [8],prevented the decrease in relative uterine weight and maintained it on the level of the SHAM vehicle group
same,Relative uterine weight,ovariectomized rats [4]; 0.2 μg/kg/d in B/R,0.045 (0.003) % of body weight
same,Relative uterine weight,ovariectomized rats [4]; 0.4 μg/kg/d in B/R,0.054 (0.003) % of body weight
same,Relative uterine weight,ovariectomized rats [4]; 1.2 μg/kg/d in B/R,0.110 (0.008) % of body weight
same,Relative uterine weight,ovariectomized rats [4]; 1.2 μg/kg/d in E/A,0.114 (0.005) % of body weight
same,Relative uterine weight,ovariectomized rats [4]; 4.0 μg/kg/d in B/R,0.159 (0.006) % of body weight
same,"Luciferase activity, Prostate",ERE-Luc; i.p. 1.5 μg/kg,0.5 arbitrary units
same,"Luciferase activity, Bone",ERE-Luc; i.p. 1.5 μg/kg,2.6 arbitrary units
same,"Luciferase activity, Brain",ERE-Luc; i.p. 1.5 μg/kg,6.6 arbitrary units
same,"Luciferase activity, Liver",ERE-Luc; i.p. 1.5 μg/kg,11.0 ** arbitrary units
"O=c1c(-c2ccc(O)cc2)coc2cc(O)cc(O)c12 [Genistein, genistein]","Luciferase activity, Prostate",ERE-Luc; i.p. 30 mg/kg,0.7 ** arbitrary units
same,"Luciferase activity, Bone",ERE-Luc; i.p. 30 mg/kg,3.8 * arbitrary units
same,"Luciferase activity, Brain",ERE-Luc; i.p. 30 mg/kg,8.7 arbitrary units
same,"Luciferase activity, Liver",ERE-Luc; i.p. 30 mg/kg,12.2 ** arbitrary units
